Laboratory results: patent US20100041920A1, “NEW SALT FORMS OF AN AMINOINDAN DERIVATIVE” (priority 2008, published 2010)
Structures can show the parent of a compound that is named as a salt. Where two headings read alike, the source gives them in different places.

What was measured:
[1] = for Colour/Aspect 10 months later / Purity (HPLC) 10 months later / XRD result 10 months later: room temperature, ambient atmosphere; for Purity (HPLC) % initial / XRD result Initial: before storage
[2] = Accelerated stability studies of rasagiline salts (40° C. and 75% RH; PE and AL bags); type: physicochemical; details: for XRD 1st Month / XRD 2nd Month / Purity (HPLC) 1st Month / Purity (HPLC) 2nd Month: 40° C. and 75% RH; for XRD 1st Month / Purity (HPLC) 1st Month: 1 month; for XRD 2nd Month / Purity (HPLC) 2nd Month: 2 months
Experimental: Rasagiline salts were submitted to accelerated conditions (40° C. and 75% RH) in two types of bags: polyethylene (PE) and aluminium (AL) bags. The samples were characterized by HPLC, XRD, and visual inspection.

[3] = Particle size studies of rasagiline salts (Malvern Mastersizer S); details: particle size by volume, suspended in Isopar G with soybean lecithin
[4] = Flowability studies of rasagiline salts (bulk and tapped density, Hausner ratio); details: for Flowability: flow character by Hausner ratio; for Bulk density: freely settled; for Hausner ratio: tapped bulk density divided by bulk density
physchem = details: water
Experimental: The mother liquors were analyzed by HPLC.

[5] = 40° C. and 75% RH for one and two months
[6] = room temperature, stirred until equilibration, HPLC
[7] = listed as rasagiline besylate Form I
[8] = listed as rasagiline succinate Form I

Compound | Colour/Aspect 10 months later [1] | Purity (HPLC) 10 months later [1] [%] | XRD result 10 months later [1] | Purity (HPLC) % initial [1] [%] | XRD result Initial [1] | stability after ten months of storage (in words) [1] | Purity (HPLC) % initial [2] [%] | XRD Initial [2] | D(v, 0.1) [3] [μm] | D(v, 0.5) [3] [μm] | D(v, 0.9) [3] [μm] | Tapped density [4] [g/mL] | Bulk density [4] [g/mL] | other results
C#CCN[C@@H]1CCc2ccccc21.O=C(O)[C@H]1OC(O)[C@H](O)[C@@H](O)[C@@H]1O [D-Glucuronate, rasagiline D-glucuronate] | brown oil | 50.64 | amorphous | 86.00 | amorphous | highly stable in terms of polymorphic form | – | – | – | – | – | – | – | –
C#CCN[C@@H]1CCc2ccccc21.O=C(O)[C@@H](O)[C@H](O)[C@H](O)[C@@H](O)C(=O)O [Galactarate, rasagiline galactarate] | – | 98.81 | – | 98.92 | – | stable in terms of chemical purity and of polymorphic form | – | – | – | – | – | – | – | –
C#CCN[C@@H]1CCc2ccccc21.O=C(O)[C@H](O)[C@@H](O)[C@H](O)[C@H](O)CO [Gluconate, rasagiline gluconate] | brown oil | 96.36 | amorphous | 98.61 | amorphous | – | – | – | – | – | – | – | – | –
C#CCN[C@@H]1CCc2ccccc21.C#CCN[C@@H]1CCc2ccccc21.O=C(O)C(O)C(O)C(=O)O [Hemitartrate Form I, rasagiline L-hemitartrate] | white powder | 98.86 | Form I | 99.14 | Form I | highly stable in terms of visual aspect, chemical purity and of polymorphic form | 99.27 | Form I | 4.5 | 18.3 | 78.8 | 0.181 | 0.138 | stability under accelerated stability conditions (in words) [2, 5]: highly stable in terms of visual aspect, chemical purity and of polymorphic form; Flowability [4]: Passable (1.26-1.34); Flowability ([4]; listed as rasagiline L-hemitartrate Form I): passable; Flowability ([4]; listed as rasagiline L-hemitartrate salt Form I): excellent
C#CCN[C@@H]1CCc2ccccc21 [Hydrochloride Form II, rasagiline hydrochloride] | – | – | – | – | – | – | >99.9 | Form II | 41.7 | 99.6 | 185.2 | 0.673 | 0.673 | Solubility (physchem; thermodynamic from solid): ~400 mg/mL; stability under accelerated stability conditions (in words) [2, 5]: highly stable in terms of visual aspect, chemical purity and of polymorphic form; XRD 1st Month ([2]; AL bag): Form II; XRD 2nd Month ([2]; AL bag): Form II; XRD 1st Month ([2]; PE bag): Form II; XRD 2nd Month ([2]; PE bag): Form II; Purity (HPLC) 1st Month ([2]; aluminium (AL) bag): >99.9%; Purity (HPLC) 2nd Month ([2]; aluminium (AL) bag): >99.9%; Purity (HPLC) 1st Month ([2]; polyethylene (PE) bag): >99.9%; Purity (HPLC) 2nd Month ([2]; polyethylene (PE) bag): >99.9%; Flowability ([4]; hydrochloride): Excellent (1.00-1.11); Flowability ([4]; listed as rasagiline hydrochloride Form II, hydrochloride): excellent; Flowability ([4]; listed as rasagiline hydrochloride salt Form II, hydrochloride): excellent
C#CCN[C@@H]1CCc2ccccc21 [Hydrochloride, rasagiline hydrochloride] | white powder | 99.74 | Form I | 99.18 | Form I | highly stable in terms of chemical purity and of polymorphic form | – | – | – | – | – | – | – | –
C#CCN[C@@H]1CCc2ccccc21.CS(=O)(=O)O [Mesylate, R-(+)-N-propargyl-1-aminoindan mesylate, reference compound] | white powder | 99.8 | Form I | 99.58 | Form I | – | – | – | – | – | – | 0.407 | 0.236 | Flowability ([4]; listed as rasagiline mesylate, mesylate): very, very poor; Flowability ([4]; mesylate): Very, very poor (>1.60)
rasagiline besylate [Besylate Form I] | – | – | – | – | – | – | >99.9 | Form I | 6.5 | 28.8 | 50.6 | 0.435 | 0.427 | Descriptive term (solubility) (physchem; room temperature): Freely soluble; Solubility (physchem; [6]): >800 mg/mL; Solubility (physchem; room temperature, stirred until equilibration, HPLC, listed as rasagiline besylate Form I): > 800 mg/mL; Descriptive term (solubility) (physchem; room temperature, listed as rasagiline besylate Form I): freely soluble; stability under accelerated stability conditions (in words) ([2]; 40° C. and 75% RH for one month): stable in terms of chemical purity and of polymorphic form; XRD 1st Month ([2]; AL bag): Form I; Purity (HPLC) 1st Month ([2]; aluminium (AL) bag): >99.9%; Purity (HPLC) 1st Month ([2]; polyethylene (PE) bag): >99.9%; Flowability [4]: Excellent (1.00-1.11); Flowability [4, 7]: excellent; Flowability ([4]; listed as rasagiline besylate salt Form I): excellent; Hausner ratio [4]: 1.02; Hausner ratio [4, 7]: 1.00
rasagiline fumarate | – | 53.64 | – | 59.56 | Form I | – | – | – | – | – | – | – | – | –
rasagiline maleate | white powder | 63.27 | – | 66.54 | Form I | – | – | – | – | – | – | – | – | –
rasagiline phosphate | white powder | 99.60 | – | 98.45 | amorphous | – | – | – | – | – | – | – | – | –
rasagiline succinate [Succinate Form I] | – | 99.61 | Form I | 99.29 | Form I | highly stable in terms of visual aspect, chemical purity and of polymorphic form | >99.9 | Form I | 23.6 | 85.1 | 180.4 | 0.513 | 0.492 | Descriptive term (solubility) (physchem; room temperature): Very soluble; Solubility (physchem; [6]): >1200 mg/mL; Solubility (physchem; room temperature, stirred until equilibration, HPLC, listed as rasagiline succinate Form I): > 1200 mg/mL; Descriptive term (solubility) (physchem; room temperature, listed as rasagiline succinate Form I): very soluble; stability under accelerated stability conditions (in words) [2, 5]: highly stable in terms of visual aspect, chemical purity and of polymorphic form; XRD 1st Month ([2]; AL bag): Form I; XRD 2nd Month ([2]; AL bag): Form I; XRD 1st Month ([2]; PE bag): Form I; XRD 2nd Month ([2]; PE bag): Form I; Purity (HPLC) 1st Month ([2]; aluminium (AL) bag): >99.9%; Purity (HPLC) 2nd Month ([2]; aluminium (AL) bag): 99.92%; Purity (HPLC) 1st Month ([2]; polyethylene (PE) bag): >99.9%; Purity (HPLC) 2nd Month ([2]; polyethylene (PE) bag): 99.92%; Flowability [4]: Excellent (1.00-1.11); Flowability [4, 8]: excellent; Flowability ([4]; listed as rasagiline succinate salt Form I): excellent; Hausner ratio [4]: 1.04; Hausner ratio [4, 8]: about 1.04
rasagiline tosylate | – | 75.89 | Form I | 79.87 | Form I | highly stable in terms of polymorphic form | – | – | – | – | – | – | – | –
